System: Hepatitis C replicon
Assay: HCV replicon assay (NPT ELISA readout) in Huh-7 replicon-containing cells
Type: cell-based, Hepatitis C virus
Conditions: Hepatitis C virus, 72 h; HCV replicon in Huh-7 cells, three days incubation
In short: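 Replication is measured as neomycin phosphotransferase level by captured ELISA after three days of compound exposure (typically 10 to 0.03 μM, 6 concentrations) at 37 °C. Cells are Huh-7 harbouring an HCV replicon with neo gene and NS3-NS5B; interferon alpha is the positive control.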

SMILES | EC50 [nM]
COc1ccc2c(O[C@@H]3C[C@H]4C(=O)N[C@]5(C(=O)NS(=O)(=O)C6CC6)C[C@H]5/C=C\CCCCC[C@H](CC(=O)N5CCCCC5)C(=O)N4C3)cc(-c3ccccn3)nc2c1C [Compound 116, (2R,6R,14aR,16aS,Z)-N-(cyclopropylsulfonyl)-2-(7-methoxy-8-methyl-2-(pyridin-2-yl)quinolin-4-yloxy)-5, 16-dioxo-6-(2-oxo-2-(piperidin-1-yl)ethyl)-1,2,3,5,6,7,8,9,10,11, 13a,14,14a,15,16,16a-hexadecahydrocyclopropa [e]pyrrolo[1,2-a][1,4] diazacyclopentadecine-14a-carboxamide] | < 1000
COc1ccc2c(O[C@@H]3C[C@H]4C(=O)N[C@]5(C(=O)NS(=O)(=O)C6CC6)C[C@H]5/C=C\CCCCC[C@H](CC(=O)N5CCC(C(F)(F)F)CC5)C(=O)N4C3)cc(-c3ccccn3)nc2c1C [Compound 117, (2R,6R,14aR,16aS,Z)-N-(cyclopropylsulfonyl)-2-(7-methoxy-8-methyl-2-(pyridin-2-yl)quinolin-4-yloxy)-5, 16-dioxo-6-(2-oxo-2-(4-(trifluoromethyl)piperidin-1-yl)ethyl)-1,2,3,5,6,7,8,9,10,11, 13a,14,14a,15,16,16a-hexadecahydrocyclopropa [e]pyrrolo[1,2-a][1,4] diazacyclopentadecine-14a-carboxamide] | > 10000
COc1ccc2c(O[C@@H]3C[C@H]4C(=O)N[C@]5(C(=O)NS(=O)(=O)C6CC6)C[C@H]5/C=C\CCCCC[C@H](CC(=O)N5CCCCC5)C(=O)N4C3)cc(-c3nc(C(C)C)cs3)nc2c1 [Compound 118, (2R,6R,14aR,16aS,Z)-N-(cyclopropylsulfonyl)-2-(2-(4-isopropylthiazol-2-yl)-7-methoxyquinolin-4-yloxy)-5,16-dioxo-6-(2-oxo-2-(piperidin-1-yl)ethyl)-1,2,3,5,6,7,8,9,10,11, 13a,14,14a,15,16,16a-hexadecahydrocyclopropa [e]pyrrolo[1,2-a][1,4] diazacyclopentadecine-14a-carboxamide] | < 1000
COc1ccc2c(O[C@@H]3C[C@H]4C(=O)N[C@]5(C(=O)NS(=O)(=O)C6CC6)C[C@H]5/C=C\CCCCC[C@H](CC(=O)N5CCC(C(F)(F)F)CC5)C(=O)N4C3)cc(-c3nc(C(C)C)cs3)nc2c1 [Compound 119, (2R,6R,14aR,16aS,Z)-N-(cyclopropylsulfonyl)-2-(2-(4-isopropylthiazol-2-yl)-7-methoxyquinolin-4-yloxy)-5,16-dioxo-6-(2-oxo-2-(4-(trifluoromethyl)piperidin-1-yl)ethyl)-1,2,3,5,6,7,8,9,10,11, 13a,14,14a,15,16,16a-hexadecahydrocyclopropa [e]pyrrolo[1,2-a][1,4] diazacyclopentadecine-14a-carboxamide] | < 1000
COc1ccc2c(O[C@@H]3C[C@H]4C(=O)N[C@]5(C(=O)NS(=O)(=O)C6CC6)C[C@H]5/C=C\CCCCC[C@H](CC(=O)N5CCCCC5)C(=O)N4C3)cc(-c3ccccc3)cc2c1 [Compound 120, (2R,6R,14aR,16aS,Z)-N-(cyclopropylsulfonyl)-2-(6-methoxy-3-phenylnaphthalen-1-yloxy)-5,16-dioxo-6-(2-oxo-2-(piperidin-1-yl)ethyl)-1,2,3,5,6,7,8,9,10,11, 13a,14,14a,15,16,16a-hexadecahydrocyclopropa [e]pyrrolo[1,2-a][1,4] diazacyclopentadecine-14a-carboxamide] | < 1000
COc1ccc2c(O[C@@H]3C[C@H]4C(=O)N[C@]5(C(=O)NS(=O)(=O)C6CC6)C[C@H]5/C=C\CCCCC[C@H](CC(=O)N5CCC(C(F)(F)F)CC5)C(=O)N4C3)cc(-c3csc(NC(C)C)n3)nc2c1C [Compound 121, (2R,6R,13aS,16aS,Z)-N-(cyclopropylsulfonyl)-2-(2-(2-(isopropylamino)thiazol-4-yl)-7-methoxy-8-methylquinolin-4-yloxy)-5,16-dioxo-6-(2-oxo-2-(4-(trifluoromethyl)piperidin-1-yl)ethyl)-1,2,3,5,6,7,8,9,10,11, 13a,14,14a,15,16,16a-hexadecahydrocyclopropa [e]pyrrolo[1,2-a][1,4] diazacyclopentadecine-14a-carboxamide] | < 1000
COc1ccc2c(O[C@@H]3C[C@H]4C(=O)N[C@]5(C(=O)NS(=O)(=O)C6CC6)C[C@H]5/C=C\CCCCC[C@H](CC(=O)N5CCCCC5)C(=O)N4C3)nccc2c1Cl [Compound 122, (2R,6R,13aS,16aS, Z)-2-(5-chloro-6-methoxylsoquinolin-1-yloxy)-N-(cyclopropylsulfonyl)-5, 16-dioxo-6-(2-oxo-2-(piperidin-1-yl)ethyl)-1,2,3,5,6,7,8,9,10,11, 13a,14,14a,15,16,16a-hexadecahydrocyclopropa [e]pyrrolo[1,2-a][1,4] diazacyclopentadecine-14a-carboxamide] | < 1000
COc1ccc2c(O[C@@H]3C[C@H]4C(=O)N[C@]5(C(=O)NS(=O)(=O)C6CC6)C[C@H]5/C=C\CCCCC[C@H](CC(=O)N5CCCC(F)(F)C5)C(=O)N4C3)nccc2c1Cl [Compound 123, (2R,6R,13aS,16aS, Z)-2-(5-chloro-6-methoxylsoquinolin-1-yloxy)-N-(cyclopropylsulfonyl)-6-(2-(3,3-difluoropiperidin-1-yl)-2-oxoethyl)-5,16-dioxo-1,2,3,5,6,7,8,9,10,11, 13a,14,14a,15,16,16a-hexadecahydrocyclopropa [e]pyrrolo[1,2-a][1,4] diazacyclopentadecine-14a-carboxamide] | > 10000
COc1ccc2c(O[C@@H]3C[C@H]4C(=O)N[C@]5(C(=O)NS(=O)(=O)C6CC6)C[C@H]5/C=C\CCCCC[C@H](CC(=O)N5CCC(C(F)(F)F)CC5)C(=O)N4C3)nccc2c1Cl [Compound 124] | < 1000
O=C1N[C@]2(C(=O)NS(=O)(=O)C3CC3)C[C@H]2/C=C\CCCCC[C@H](CC(=O)N2CCC(C(F)(F)F)CC2)C(=O)N2C[C@H](Oc3cc(-c4ccccn4)nc4c5c(ccc34)CCC5)C[C@@H]12 [Compound 125, (2R,6R,13aS,16aS,Z)-N-(cyclopropylsulfonyl)-5,16-dioxo-6-(2-oxo-2-(4-(trifluoromethyl)piperidin-1-yl)ethyl)-2-(2-(pyridin-2-yl)-8,9-dihydro-7H-cyclopenta[h]quinolin-4-yloxy)-1,2,3,5,6,7,8,9,10,11, 13a,14,14a,15,16,16a-hexadecahydrocyclopropa [e]pyrrolo[1,2-a][1,4] diazacyclopentadecine-14a-carboxamide] | < 1000
COc1ccc2c(O[C@@H]3C[C@H]4C(=O)N[C@]5(C(=O)NS(=O)(=O)C6CC6)C[C@H]5/C=C\CCCCC[C@H](CC(=O)N5CCC(C(F)(F)F)CC5)C(=O)N4C3)cc(-c3nc(C(C)C)cs3)nc2c1C [Compound 126, (2R,6R,14aR,16aS,Z)-N-(cyclopropylsulfonyl)-2-(2-(4-isopropylthiazol-2-yl)-7-methoxy-8-methylquinolin-4-yloxy)-5,16-dioxo-6-(2-oxo-2-(4-(trifluoromethyl)piperidin-1-yl)ethyl)-1,2,3,5,6,7,8,9,10,11, 13a,14,14a,15,16,16a-hexadecahydrocyclopropa [e]pyrrolo[1,2-a][1,4] diazacyclopentadecine-14a-carboxamide] | < 1000
O=C1N[C@]2(C(=O)NS(=O)(=O)C3CC3)C[C@H]2/C=C\CCCCC[C@H](CC(=O)N2CCCC(F)(F)C2)C(=O)N2C[C@H](Oc3cc(-c4ccccn4)nc4c5c(ccc34)CCC5)C[C@@H]12 [Compound 127, (2R,6R,13aS,16aS,Z)-N-(cyclopropylsulfonyl)-6-(2-(3,3-difluoropiperidin-1-yl)-2-oxoethyl)-5,16-dioxo-2-(2-(pyridin-2-yl)-8,9-dihydro-7H-cyclopenta[h]quinolin-4-yloxy)-1,2,3,5,6,7,8,9,10,11, 13a,14,14a,15,16,16a-hexadecahydrocyclopropa [e]pyrrolo[1,2-a][1,4] diazacyclopentadecine-14a-carboxamide] | > 10000
COc1ccc2c(O[C@@H]3C[C@H]4C(=O)N[C@]5(C(=O)NS(=O)(=O)C6CC6)C[C@H]5/C=C\CCCCC[C@H](CC(=O)N5CCCC(F)(F)C5)C(=O)N4C3)cc(-c3nc(C(C)C)cs3)nc2c1C [Compound 128, (2R,6R,14aR,16aS,Z)-N-(cyclopropylsulfonyl)-6-(2-(3,3-difluoropiperidin-1-yl)-2-oxoethyl)-2-(2-(4-isopropylthiazol-2-yl)-7-methoxy-8-methylquinolin-4-yloxy)-5,16-dioxo-1,2,3,5,6,7,8,9,10,11, 13a,14,14a,15,16,16a-hexadecahydrocyclopropa [e]pyrrolo[1,2-a][1,4] diazacyclopentadecine-14a-carboxamide] | < 1000
COc1ccc2c(O[C@@H]3C[C@H]4C(=O)N[C@]5(C(=O)NS(=O)(=O)C6CC6)C[C@H]5/C=C\CCCCC[C@H](CC(=O)N5CCCC(F)(F)C5)C(=O)N4C3)cc(-c3cccnc3)nc2c1C [Compound 129, (2R,6R,14aR,16aS,Z)-N-(cyclopropylsulfonyl)-6-(2-(3,3-difluoropiperidin-1-yl)-2-oxoethyl)-2-(7-methoxy-8-methyl-2-(pyridin-3-yl)quinolin-4-yloxy)-5,16-dioxo-1,2,3,5,6,7,8,9,10,11, 13a,14,14a,15,16,16a-hexadecahydrocyclopropa [e]pyrrolo[1,2-a][1,4] diazacyclopentadecine-14a-carboxamide] | > 10000
COc1ccc2c(O[C@@H]3C[C@H]4C(=O)N[C@]5(C(=O)NS(=O)(=O)C6CC6)C[C@H]5/C=C\CCCCC[C@H](CC(=O)N5CCCC(F)(F)C5)C(=O)N4C3)nc(-c3ccccn3)cc2c1Cl [Compound 130, (2R,6R,14aR,16aS,Z)-2-(5-chloro-6-methoxy-3-(pyridin-2-yl)isoquinolin-1-yloxy)-N-(cyclopropylsulfonyl)-6-(2-(3,3-difluoropiperidin-1-yl)-2-oxoethyl)-5,16-dioxo-1,2,3,5,6,7,8,9,10,11, 13a,14,14a,15,16,16a-hexadecahydrocyclopropa [e]pyrrolo[1,2-a][1,4] diazacyclopentadecine-14a-carboxamide] | < 1000

Reference: US8697641B2, “4-amino-4-oxobutanoyl peptide cyclic analogues, inhibitors of viral replication” (Achillion Pharmaceuticals, Inc., priority 2008, dated 2014)
